The nature of this series: Assay on drug metabolism in rat. Particulars: SD, plasma, iv, 30 mg/Kg via jugular vein. In kind it is in vivo, SD rats. From the text:
50 SD rats (purchased from Shanghai SLAC Laboratory Animal Co., Ltd) were divided into 5 groups randomly, 10 rats per group. After anesthesia with ether, rat was fixed on the operating table on its back, and was shaved at the operative site of neck. After disinfection with 75% alcohol, the neck was cut about 1.5 cm longitudinally, muscle tissues and nervi vascularis surrounding trachea were separated by blunt dissection, and carotid artery was separated by blunt dissection. Ligation was performed at distal end, an artery clamp was used at proximal part, and the distance between them was about 1 cm. A small cut was made with a pair of ophthalmic scissors at proximal part close to the ligated site, and arterial duct was introduced from the small cut to the proximal part, the artery clamp was loosened, the arterial ostium was clamped with smooth forceps, whilst the arterial duct was delivered to heart ventricle. Upon the introduction of the arterial duct into heart ventricle, the blood vessel was ligated. By using the same intubation method for artery, intubation was applied to jugular veins. After intubation, a tubule filled with heparin sodium was drawn out from artery and vein, which passed through the skin under the ear of the rat and drawn out from the dorsal part skin of the neck of the rat, and the tubule was fixed well. The muscles and skin were sutured at the surgical site of the rat, and normal saline containing heparin sodium was injected from time to time via the tubule connecting the artery and the vein to prevent tubule obstruction due to blood coagulation. The rat was placed in a warm and clean cage provided with water and food, waiting for the rat to wake up naturally.
After the rat regained consciousness and acted normally, assay on metabolic stability of compounds was performed in the rat. All the agents to be injected (including compounds to be tested and control drug) were dissolved in a mixed solvent of PEG400:Tween 80:normal saline (at a volume ratio of 5:5:90), at a concentration of 5 mg/mL. The agent was injected slowly at a dose of 30 mg/Kg via the tubule drawn out from the jugular vein. After administration, the time was recorded, and blood was collected from the tubule drawn out from carotid artery at 2, 5, 10, 20, 30, 60, 240, 360, and 720 min, in an amount of 200 μL for each time. The whole blood was placed in commercially available heparin sodium blood-collecting tube (Jiangxi Jingzhi Medical Equipment Co., Ltd.), centrifuged at 1800 g for 15 min. To the supernatant plasma, 150 μL pre-cooled methanol stopping buffer (containing internal standard E8, 1 nmol/sample) was added, vertically mixed well, and then centrifuged at 4° C., 12000 g for 10 min. The supernatant was transferred to a sample vial, the target compound was detected by LC-MS/MS, and the content of the compound was calculated by virtue of standard curve.

What is called half-life is the time needed for the level to fall by half in the phase considered. High values mean slow loss, low ones fast loss. Regarding `O=C(CCCCCc1cccc(Cl)c1)N1CCOC1=O` [Compound 9, 3-Chlorophenylhexanoyl Oxazolidinone], the half-life amounted to 1.95 h. The same measure for `O=C(CCCCCc1ccccc1)N1CCOC1=O` [Compound 2, Phenylhexanoyl Oxazolidinone]: 2.4 h.
